Target: T1, human PDE9A2 (Homo sapiens, UniProt O76083)
T1 construct: made in house; host or cells: Sf9 insect cells (infected; crude lysate used as enzyme source)
Assay: PDE9A2 enzymatic activity assay (scintillation proximity assay)
Type: biochemical
Conditions: for inhibition at 10 µM: read-out: % Inhibition of PDE 9A2; for IC50: specific IC50 value is within the given range
Description: The PDE9A2 enzymatic activity assay was run as scintillation proximity assay (SPA), in general according to the protocol of the manufacturer (Amersham Biosciences, product number: TRKQ 7100).
As enzyme source, lysate (PBS with 1% Triton X-100 supplemented with protease inhibitors, cell debris removed by centrifugation at 13.000 rpm for 30 min) of SF 9 cell expressing the human PDE9A2 was used. The total protein amount included in the assay varied upon infection and production efficacy of the SF9 cells and lay in the range of 0.1-100 ng.
In general, the assay conditions were as follows: • total assay volume: 40 microliter • protein amount: 0.1-50 ng • substrate concentration (cGMP): 20 nanomolar; ˜1 mCi/1 • incubation time: 60 min at room temperature • final DMSO concentration: 0.2-1
The assays were run in 384-well format. The test reagents as well as the enzyme and the substrate were diluted in assay buffer. The assay buffer contained 50 mM Tris, 8.3 mM MgCl2, 1.7 mM EGTA, 0.1% BSA, 0.05% Tween 20; the pH of assay buffer was adjusted to 7.5. The reaction was stopped by applying a PDE9 specific inhibitor (e.g. compounds according to WO04099210 or WO04099211) in excess.
The activity of the positive control (minus the negative control=background) is set to 100% and activity in the presence of test compound is expressed relative to these 100%. Within this setting, an inhibition above 100% might be possible due to the nature of the variation of the positive control within the assay. In the following inhibition of PDE 9A2 is presented for a concentration at 10 μM, if not indicated otherwise.
IC50 can be calculated with GraphPadPrism or other suited software setting the positive control as 100 and the negative control as 0. For calculation of IC50 dilutions of the test compounds (substrates) are to be selected and tested following the aforementioned protocol.

T1 sequence (O76083 1-533 isoform O76083-2): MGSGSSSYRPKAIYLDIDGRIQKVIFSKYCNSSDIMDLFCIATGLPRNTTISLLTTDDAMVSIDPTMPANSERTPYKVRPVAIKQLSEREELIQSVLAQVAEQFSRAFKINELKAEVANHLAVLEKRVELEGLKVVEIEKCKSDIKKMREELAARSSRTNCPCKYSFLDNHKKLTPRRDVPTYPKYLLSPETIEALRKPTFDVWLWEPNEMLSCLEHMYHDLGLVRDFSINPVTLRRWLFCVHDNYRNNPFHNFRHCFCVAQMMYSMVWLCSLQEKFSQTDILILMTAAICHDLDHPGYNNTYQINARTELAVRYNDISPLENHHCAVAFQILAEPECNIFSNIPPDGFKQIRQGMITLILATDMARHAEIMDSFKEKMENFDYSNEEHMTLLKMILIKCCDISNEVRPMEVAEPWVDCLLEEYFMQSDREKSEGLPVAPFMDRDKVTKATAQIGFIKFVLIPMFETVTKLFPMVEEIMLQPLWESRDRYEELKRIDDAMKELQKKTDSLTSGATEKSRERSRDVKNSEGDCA

| SMILES | inhibition at 10 µM | IC50 |
| --- | --- | --- |
| CCOC(=O)NC1CCCC(n2ncc3c(=O)[nH]c(CC4CCCC4)nc32)C1 (mixture of isomers) [Example 17] | 103% | 0.001 to 0.1 µM |
| CC(Cc1nc2c(cnn2C2CCC(F)(F)CC2)c(=O)[nH]1)C(F)F (racemic) [Example 48-5] | 93% | 0.101 to 1.5 µM |
| COc1ccc(-c2ccccc2Cc2nc3c(cnn3C3CCC(F)(F)CC3)c(=O)[nH]2)cn1 [Example 56] | 99% | 0.001 to 0.1 µM |
| N#Cc1ccc(-c2ccccc2Cc2nc3c(cnn3C3CCC(F)(F)CC3)c(=O)[nH]2)cn1 [Example 54] | 102% | 0.001 to 0.1 µM |
| CCC(Cc1nc2c(cnn2C2CCC(F)(F)CC2)c(=O)[nH]1)C(F)(F)F (racemic) [Example 27] | 104% | 0.001 to 0.1 µM |
| CC1(C)CC(Cc2nc3c(cnn3C3CCC(F)(F)CC3)c(=O)[nH]2)CO1 (single isomer, unassigned) [Example 77] | 100% | 0.001 to 0.1 µM |
| CC(C)Cc1nc2c(cnn2C2CCC(F)CC2)c(=O)[nH]1 (stereo not shown) [Example 112] | 97% | 0.001 to 0.1 µM |
| O=c1[nH]c(Cc2cccc(Cl)c2)nc2c1cnn2C1CCC(F)(F)CC1 [Example 5] | 98% | 0.001 to 0.1 µM |
| O=c1[nH]c(C(F)c2ccccc2-n2cccn2)nc2c1cnn2C1CCC(F)(F)CC1 (single isomer, unassigned) [Example 92] | 93% | 0.101 to 1.5 µM |
| N#Cc1ccccc1Cc1nc2c(cnn2C2CCC(F)(F)CC2)c(=O)[nH]1 [Example 31] | 99% | 0.001 to 0.1 µM |
| O=c1[nH]c(CC2CCCC2)nc2c1cnn2C1CCC(F)(F)CC1 [Example 20] | 104% | 0.001 to 0.1 µM |
| COc1cncc(-c2ccc(F)cc2Cc2nc3c(cnn3C3CCC(F)(F)CC3)c(=O)[nH]2)c1 [Example 58] | 101% | 0.001 to 0.1 µM |
| NC1CCCC(n2ncc3c(=O)[nH]c(CC4CCCC4)nc32)C1 (racemic) [Example 86] | 77% | 0.101 to 1.5 µM |
| Cn1cc(-c2ccccc2C(F)c2nc3c(cnn3C3CCC(F)(F)CC3)c(=O)[nH]2)cn1 (racemic) [Example 72-11] | 84% | 0.001 to 0.1 µM |
| O=C(Cc1ccccc1Cc1nc2c(cnn2C2CCC(F)(F)CC2)c(=O)[nH]1)N1CCCCC1 [Example 81] | 95% | 0.101 to 1.5 µM |
| COc1ccc(-c2cc(F)ccc2Cc2nc3c(cnn3C3CCC(F)(F)CC3)c(=O)[nH]2)cn1 [Example 69] | 97% | 0.101 to 1.5 µM |
| CCC(Cc1nc2c(cnn2C2CCC(F)(F)CC2)c(=O)[nH]1)C(F)(F)F (single isomer, unassigned) [Example 101] | 100% | 0.001 to 0.1 µM |
| O=c1[nH]c(CC2CCC(F)(F)CC2)nc2c1cnn2C1CCC(F)(F)CC1 [Example 34] | 96% | 0.101 to 1.5 µM |
| NC1CCCC(n2ncc3c(=O)[nH]c(Cc4ccccc4OC(F)(F)F)nc32)C1 (racemic) [Example 87] | 81% | 0.101 to 1.5 µM |
| O=c1[nH]c(C(F)c2ccccc2-n2cccn2)nc2c1cnn2C1CCC(F)(F)CC1 (racemic) [Example 88] | 93% | 0.101 to 1.5 µM |
| COC1CCCCC1n1ncc2c(=O)[nH]c(CC3CC3)nc21 (racemic) [Example 11] | 89% | 0.101 to 1.5 µM |
| CCCCc1nc2c(cnn2C2CCC(F)(F)CC2)c(=O)[nH]1 [Example 8] | 98% | 0.001 to 0.1 µM |
| O=c1[nH]c(Cc2cc(F)ccc2-c2ccnc(F)c2)nc2c1cnn2C1CCC(F)(F)CC1 [Example 72-4] | 101% | 0.001 to 0.1 µM |

| SMILES | inhibition at 10 µM | IC50 |
| --- | --- | --- |
| O=c1[nH]c(Cc2ccccn2)nc2c1cnn2C1CCC(F)(F)CC1 [Example 1] | 98% | 0.001 to 0.1 µM |
| COc1ccc(F)cc1Cc1nc2c(cnn2C2CCC(F)(F)CC2)c(=O)[nH]1 [Example 48-4] | 99% | 0.001 to 0.1 µM |
| COc1ccc(-c2ccc(F)cc2Cc2nc3c(cnn3C3CCC(F)(F)CC3)c(=O)[nH]2)cn1 [Example 65] | 101% | 0.001 to 0.1 µM |
| Cc1cccnc1Cc1nc2c(cnn2C2CCC(F)CC2)c(=O)[nH]1 (stereo not shown) [Example 110] | 95% |  |
| O=c1[nH]c(C(F)c2ccccc2)nc2c1cnn2C1CCC(F)(F)CC1 (racemic) [Example 25] | 103% | 0.001 to 0.1 µM |
| COC(=O)Cc1ccccc1Cc1nc2c(cnn2C2CCC(F)(F)CC2)c(=O)[nH]1 [Example 84] | 81% | 0.101 to 1.5 µM |
| O=C(NC1CCCC(n2ncc3c(=O)[nH]c(CC4CCCC4)nc32)C1)c1ccccc1 (racemic) [Example 51] | 98% | 0.101 to 1.5 µM |
| O=c1[nH]c(Cc2ccccc2-c2cncnc2)nc2c1cnn2C1CCC(F)(F)CC1 [Example 76] | 99% | 0.001 to 0.1 µM |
| COc1cc(-c2cc(F)ccc2Cc2nc3c(cnn3C3CCC(F)(F)CC3)c(=O)[nH]2)ccn1 [Example 59] | 95% | 0.101 to 1.5 µM |
| COc1cc(-c2ccc(F)cc2Cc2nc3c(cnn3C3CCC(F)(F)CC3)c(=O)[nH]2)ccn1 [Example 64] | 97% | 0.001 to 0.1 µM |
| O=c1[nH]c(Cc2ncccc2C2CC2)nc2c1cnn2C1CCC(F)(F)CC1 [Example 105] | 97% | 0.101 to 1.5 µM |
| CC1(C)CC(n2ncc3c(=O)[nH]c(CC4CC4)nc32)CC(C)(C)C1 [Example 13] | 98% | 0.101 to 1.5 µM |
| O=c1[nH]c(Cc2ccccc2-c2ccnc(F)c2)nc2c1cnn2C1CCC(F)(F)CC1 [Example 74] | 98% | 0.001 to 0.1 µM |
| O=c1[nH]c(Cc2ccccc2-n2cccc2)nc2c1cnn2C1CCC(F)(F)CC1 [Example 104] | 97% | 0.001 to 0.1 µM |
| O=c1[nH]c(Cc2ccccc2Br)nc2c1cnn2C1CCC(F)(F)CC1 [Example 33] | 98% | 0.001 to 0.1 µM |
| O=c1[nH]c(CC2CC2)nc2c1cnn2C1CCC(F)(F)CC1 [Example 2] | 101% | 0.001 to 0.1 µM |
| O=c1[nH]c(Cc2ccccn2)nc2c1cnn2C1CCCC(c2ccccc2)C1 (mixture of isomers) [Example 14] | 94% | 0.101 to 1.5 µM |
| O=c1[nH]c(Cc2ccccc2CCO)nc2c1cnn2C1CCC(F)(F)CC1 [Example 83] | 88% | 0.101 to 1.5 µM |
| C[C@@H]1CC(Cc2nc3c(cnn3C3CCC(F)(F)CC3)c(=O)[nH]2)C(=O)N1C (mixture of isomers) [Example 48-6] | 87% | 0.101 to 1.5 µM |
| CCC(CC)Cc1nc2c(cnn2C2CCC(F)(F)CC2)c(=O)[nH]1 [Example 21] | 103% | 0.001 to 0.1 µM |
| O=C(Cc1ccccc1Cc1nc2c(cnn2C2CCC(F)(F)CC2)c(=O)[nH]1)N1CCOCC1 [Example 82] | 91% | 0.101 to 1.5 µM |
| O=c1[nH]c(Cc2ccccc2CCCN2CCOCC2)nc2c1cnn2C1CCC(F)(F)CC1 [Example 78] | 97% | 0.001 to 0.1 µM |
| O=c1[nH]c(Cc2cc(F)ccc2-c2ccc(F)nc2)nc2c1cnn2C1CCC(F)(F)CC1 [Example 72-7] | 100% | 0.001 to 0.1 µM |

Reference: patent publication US9079905B2, “Compounds for the treatment of CNS disorders” (Boehringer Ingelheim International GmbH, priority 2008, dated 2015)
